From patent publication US20210300940A1 (Merck Patent GmbH, priority 2018, published 2021)

Columns and labels:
[1] = biological target: T1, TLR8 (Homo sapiens, UniProt Q9NR97); assay: HEK/293 TLR8 Cell Assay; assay type: cell-based; conditions: HEK cells, R848 agonist 30 uM final concentration, Steady-Glo readout; read-out: TLR8 potency
T1 construct: expressed in transfected cells; host or cells: HEK/293 reporter cells (NF-kB luciferase)
T1 sequence (Q9NR97 27-1041): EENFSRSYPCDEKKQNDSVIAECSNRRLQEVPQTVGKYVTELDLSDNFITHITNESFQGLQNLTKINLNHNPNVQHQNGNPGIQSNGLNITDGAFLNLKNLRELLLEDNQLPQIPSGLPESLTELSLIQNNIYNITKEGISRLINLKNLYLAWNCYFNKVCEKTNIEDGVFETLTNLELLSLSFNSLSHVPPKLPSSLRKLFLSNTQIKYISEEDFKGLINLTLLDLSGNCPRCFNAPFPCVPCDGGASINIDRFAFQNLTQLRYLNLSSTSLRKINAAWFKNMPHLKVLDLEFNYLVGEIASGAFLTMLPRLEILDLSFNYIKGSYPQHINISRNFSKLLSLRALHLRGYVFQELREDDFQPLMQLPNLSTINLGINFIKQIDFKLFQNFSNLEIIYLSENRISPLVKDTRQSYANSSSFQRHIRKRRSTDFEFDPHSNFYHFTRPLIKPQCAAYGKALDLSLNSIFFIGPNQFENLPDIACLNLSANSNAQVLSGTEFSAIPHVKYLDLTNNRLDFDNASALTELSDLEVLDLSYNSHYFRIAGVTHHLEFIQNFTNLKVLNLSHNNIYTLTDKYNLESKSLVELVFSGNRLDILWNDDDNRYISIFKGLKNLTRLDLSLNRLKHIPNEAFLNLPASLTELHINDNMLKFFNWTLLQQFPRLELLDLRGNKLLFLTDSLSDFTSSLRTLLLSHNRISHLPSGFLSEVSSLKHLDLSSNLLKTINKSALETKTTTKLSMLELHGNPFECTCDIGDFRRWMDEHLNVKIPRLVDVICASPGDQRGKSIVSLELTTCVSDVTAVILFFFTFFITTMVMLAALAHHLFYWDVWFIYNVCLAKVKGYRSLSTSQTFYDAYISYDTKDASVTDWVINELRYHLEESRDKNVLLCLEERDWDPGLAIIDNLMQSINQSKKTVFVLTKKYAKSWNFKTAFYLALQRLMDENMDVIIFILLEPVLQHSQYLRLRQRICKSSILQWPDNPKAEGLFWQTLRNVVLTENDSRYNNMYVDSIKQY

[2] = biological target: T2, TLR7 (Homo sapiens, UniProt Q9NYK1); assay: HEK/293 TLR7 Cell Assay; assay type: cell-based; conditions: TLR7/NFKb HEK cells, R848 agonist 10 uM final concentration, Steady-Glo readout; read-out: TLR7 potency
T2 construct: expressed in transfected cells; host or cells: HEK/293 cells carrying TLR7 and an NF-kB luciferase reporter
T2 sequence (Q9NYK1 27-1049): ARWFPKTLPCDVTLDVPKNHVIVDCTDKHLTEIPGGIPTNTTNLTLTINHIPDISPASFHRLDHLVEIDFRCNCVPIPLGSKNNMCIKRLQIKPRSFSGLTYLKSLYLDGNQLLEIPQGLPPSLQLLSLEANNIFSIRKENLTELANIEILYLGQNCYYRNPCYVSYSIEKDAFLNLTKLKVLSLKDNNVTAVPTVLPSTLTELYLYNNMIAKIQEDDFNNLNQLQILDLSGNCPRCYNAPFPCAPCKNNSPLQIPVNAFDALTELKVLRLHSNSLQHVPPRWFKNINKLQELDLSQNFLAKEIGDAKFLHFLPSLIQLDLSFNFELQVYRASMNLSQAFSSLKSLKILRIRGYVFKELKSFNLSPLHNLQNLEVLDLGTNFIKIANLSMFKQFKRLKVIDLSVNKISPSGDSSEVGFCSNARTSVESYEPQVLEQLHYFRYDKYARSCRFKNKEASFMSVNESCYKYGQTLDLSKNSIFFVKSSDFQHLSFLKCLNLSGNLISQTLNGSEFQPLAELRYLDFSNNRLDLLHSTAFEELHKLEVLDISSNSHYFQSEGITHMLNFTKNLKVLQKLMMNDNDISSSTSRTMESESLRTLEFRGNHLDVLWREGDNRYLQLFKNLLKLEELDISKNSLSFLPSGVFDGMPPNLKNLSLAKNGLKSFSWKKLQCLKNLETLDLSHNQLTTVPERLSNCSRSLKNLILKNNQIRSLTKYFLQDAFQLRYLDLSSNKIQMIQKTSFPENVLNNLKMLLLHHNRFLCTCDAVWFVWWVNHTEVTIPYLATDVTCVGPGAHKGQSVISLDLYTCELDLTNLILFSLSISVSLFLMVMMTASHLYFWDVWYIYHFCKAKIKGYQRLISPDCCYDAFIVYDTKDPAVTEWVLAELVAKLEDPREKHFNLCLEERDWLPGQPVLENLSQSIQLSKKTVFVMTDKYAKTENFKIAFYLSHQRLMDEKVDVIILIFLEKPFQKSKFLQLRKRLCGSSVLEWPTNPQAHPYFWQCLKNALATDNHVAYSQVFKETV
Procedure, shortened: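 Compounds added to HEK cells expressing TLR7 with an NFκB reporter 30 min ahead of 10 uM R848 challenge; luciferase signal (Steady-Glo) measured after 5 h, cells having been seeded 24 h earlier at 5000 per well.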

Row | IC50 [1] [nM] | IC50 [2] [nM] | Structure (SMILES)
1 | < 75 | < 75 | CONC(=O)CCN[C@@H]1C[C@H](C)CN(c2ccc(C(F)(F)F)c3ncccc23)C1 [Example 55, N-Methoxy-3-[(3R,5S)-5-methyl-1-(8-trifluoromethyl-quinolin-5-yl)-piperidin-3-ylamino]-propionamide]
2 | < 75 | 75 to 150 | CNC(=O)CCN[C@@H]1C[C@H](C)CN(c2ccc(C(F)(F)F)c3ncccc23)C1 [Example 56, N-Methyl-3-[(3R,5S)-5-methyl-1-(8-trifluoromethyl-quinolin-5-yl)-piperidin-3-ylamino]-propionamide]
3 | > 150 | 75 to 150 | C[C@H]1C[C@@H](NC(=O)CC2CN(C)C2)CN(c2cc(F)c(C#N)c3ncccc23)C1 [Example 59, N-[(3R,5S)-1-(8-Cyano-7-fluoro-quinolin-5-yl)-5-methyl-piperidin-3-yl]-2-(1-methyl-azetidin-3-yl)-acetamide]
4 | < 75 | < 75 | N#Cc1ccc(N2C[C@H](NC(=O)C(O)CO)C[C@H](C(F)(F)F)C2)c2cccnc12 (stereo partly drawn) [Example 60, N-[(3R,5S)-1-(8-Cyano-quinolin-5-yl)-5-trifluoromethyl-piperidin-3-yl]-2,3-dihydroxy-propionamide]
5 | > 150 | > 150 | N#Cc1ccc(N2C[C@H](NC(=O)CO)C[C@H](C(F)(F)F)C2)c2cccnc12 [Example 62, N-[(3R,5S)-1-(8-Cyano-quinolin-5-yl)-5-trifluoromethyl-piperidin-3-yl]-2-hydroxy-acetamide]
6 | < 75 | < 75 | CN1CCC(O)(CC(=O)N[C@@H]2C[C@H](C(F)(F)F)CN(c3ccc(C(F)(F)F)c4nccnc34)C2)CC1 [Example 63, 2-(4-hydroxy-1-methylpiperidin-4-yl)-N-[(3R,5S)-5-(trifluoromethyl)-1-[8-(trifluoromethyl)quinoxalin-5-yl]piperidin-3-yl]acetamide]
7 | < 75 | < 75 | CN(C)CCC(=O)N[C@@H]1C[C@H](C(F)(F)F)CN(c2ccc(C(F)(F)F)c3ncccc23)C1 [Example 64, 3-(dimethylamino)-N-[(3R,5S)-5-(trifluoromethyl)-1-[8-(trifluoromethyl)quinolin-5-yl]piperidin-3-yl]propanamide]
8 | < 75 | < 75 | CN(C)CCC(=O)N[C@@H]1C[C@H](C(F)(F)F)CN(c2ccc(C#N)c3ncccc23)C1 [Example 65, N-[(3R,5S)-1-(8-cyanoquinolin-5-yl)-5-(trifluoromethyl)piperidin-3-yl]-3-(dimethylamino)propanamide]
9 | < 75 | < 75 | CN1CCN(CC(=O)N[C@@H]2C[C@H](C(F)(F)F)CN(c3ccc(C(F)(F)F)c4ncccc34)C2)CC1 [Example 66, 2-(4-methylpiperazin-1-yl)-N-[(3R,5S)-5-(trifluoromethyl)-1-[8-(trifluoromethyl)quinolin-5-yl]piperidin-3-yl]acetamide]

Row | Structure (SMILES) | IC50 [1] [nM] | IC50 [2] [nM]
10 | C[C@H]1C[C@@H](N)CN(c2cc(F)c(C#N)c3ncccc23)C1 [Example 57, 5-((3R,5S)-3-Amino-5-methyl-piperidin-1-yl)-7-fluoro-quinoline-8-carbonitrile] | < 75 | < 75
11 | C[C@H]1C[C@@H](NC(=O)Cc2cnn(C)c2)CN(c2cc(F)c(C#N)c3ncccc23)C1 [Example 58, N-[(3R,5S)-1-(8-Cyano-7-fluoro-quinolin-5-yl)-5-methyl-piperidin-3-yl]-2-(1-methyl-1H-pyrazol-4-yl)-acetamide] | 75 to 150 | > 150
12 | CN1CCC(C(=O)N[C@@H]2C[C@H](C(F)(F)F)CN(c3ccc(C#N)c4ncccc34)C2)CC1 [Example 61, 1-Methyl-piperidine-4-carboxylic acid [(3R,5S)-1-(8-cyano-quinolin-5-yl)-5-trifluoromethyl-piperidin-3-yl]-amide] | < 75 | < 75
